Assay results published in patent US8927547B2, “Pyrimidine derivatives” (Noviga Research AB, priority 2010, dated 2015).

Legend:
Assay type in all cases: cell-based
[1] = system: CCRF-CEM cancer cells - leukaemia; assay: Fluorometric Microculture Cytotoxicity Assay (FMCA), CCRF-CEM; settings: Homo sapiens, 72 h incubation
Text: (§1) The Fluorometric Microculture Cytotoxicity Assay, FMCA, is a three day non-clonogenic microplate-based cell viability assay used for measurement of the cytotoxic and/or cytostatic effect of compounds in vitro (Lindhagen, E., et al. Nat Protoc, 2008. 3(8): p. 1364-9). FMCA (Larsson, R. and P. Nygren, Anticancer Res, 1989. 9(4): p. 1111-9) represents a valuable method to measure cytotoxicity in a number of cell types, both cell lines and primary cells from patients (Larsson, R., et al., Int J Cancer, 1992. 50(2): p. 177-85; Fridborg, H., et al., Eur J Cancer, 1999. 35(3): p. 424-32; Dhar, S., et al., Br J Cancer, 1996. 74(6): p. 888-96).
(§2) FMCA is based on the principle that fluorescein diacetate (FDA) is converted to the fluorescent probe fluorescein by esterases in the plasma membranes of living cells. For experiments, 96 or 384-well microplates are prepared with compounds and stored at −70° C. until use. Cells are then seeded into the drug-prepared plates and placed in an incubator for 72 h. On the last day of incubation, the plates are washed and a buffer containing FDA is added and incubated with the cells for 45 minutes. Finally the fluorescence per well is measured in a fluorometer and a Survival Index % (SI) for each compound-treated well is calculated with the equation: Compound-treated cells minus blank divided by control cells minus blank. A high SI-value indicates a large percentage of living cells and vice versa.
In subsequent experiments, compounds were tested, along with kinase inhibitors (dasatinib, pazopanib, sorafenib, and sunitinib) as described above. Initially, the acute lymphoblastic leukaemia cell line CCRF-CEM (see e.g. Foley G E, et al. Cancer 1965, 18, 522-529) was used throughout. In the assay plates, medium was added to six empty wells (blank wells) and wells were filled with PBS and cell suspension and served as control wells. SI-values were then calculated for each compound-treated well as described above. All experiments were conducted twice and a new batch of plates was prepared for each experiment.
For dose-response experiments, 384-well plates were prepared as follows:
(§3) Compounds of the invention as well as kinase inhibitors sorafenib, sunitinib, dasatinib, and pazopanib (reference compounds) were diluted with PBS to a concentration which was ten-times higher than the desired starting concentration. Then, a Biomek 2000 liquid handling system was employed to serially dilute the compounds in a deep-well 384-well plate. From this plate, assay plates containing 5 μl compound per well were prepared with the Biomek 2000. Certain compounds precipitated when diluted with PBS, and these compounds were therefore prepared in a 96-well plate manually as described above using culture medium RPMI 1640 instead of PBS.
(§4) The compounds were also tested at five concentrations, with five times serial dilution on the following cell types: CCRF-CEM, hTERT-RPE1 (normal retinal epithelial cells), hRPTEpiC (normal renal cells) and PBMC (peripheral blood mononuclear cells). Each experiment was performed three times, except for PBMC and hRPTEpiC, which were performed twice. SI-values were calculated, graphs were plotted using GraphPadPrism 5.0 (GraphPad Software Inc. La Jolla, Calif.) and EC50-values for each cell type and compound were determined from the curves.

HCT116 = assay: FMCA, HCT116 colon cancer; settings: Homo sapiens, HCT-116, read-out: EC50 (μM) in various cancer cell lines: HCT116
Text: as §1, §2, §3, §4
(§5) The compounds of the invention were also tested on further cancer cell lines related to colon cancer (HCT116; see e.g Brattain M G, et al. Cancer Res. 1981, 41, 1751-1756), breast cancer (MCF7; see e.g. Soule H D, et al. J. Natl. Cancer Inst. 1973, 51, 1409-1416), teniposide-resistant leukaemia (CEM/VM1; see e.g. Danks M K et al. Cancer Res. 1987, 47, 1297-1301), lung cancer (H69; see e.g. Gazdar A F, et al. Cancer Res. 1980, 40, 3502-3507), doxorubicin-resistant lung cancer (H69AR; see e.g. Mirski S E, et al. Cancer Res. 1987, 47, 2594-2598), myeloma (RPMI 8226; see e.g. Matsuoka Y, et al. Proc. Soc. Exp. Biol. Med. 1967, 125, 1246-1250), doxorubicin-resistant myeloma (8226/Dox40; see e.g. Dalton W S et al. Blood 1989, 15,747-752), lymphoma (U-937, see e.g. Sundstrom C, et al. Int. J. Cancer 1976, 17, 565-577), vincristin-resistant lymphoma (U-937-vcr; see e.g. Botling J, et al. Int J Cancer 1994, 15; 58 (2), 269-274), ovarian cancer (A2780; see e.g. Hamilton T C, et al. Semin Oncol. 1984, 11, 285-298), doxorubicin-resistant ovarian cancer (A2780/Adr), cisplatin-resistant ovarian cancer (A2780/Cis; see e.g. Behrens B C, et al. Cancer Res. 1987, 47, 414-418), renal cancer (ACHN; see e.g. Borden E C, et al. Cancer Res. 1982, 42(12), 4948-4953), pancreatic cancer (PANC-1, BxPC-3, and MIA PaCa-2; see e.g. Lieber M, et al. Int. […]

MCF7 = assay: FMCA, MCF7 breast cancer; settings: Homo sapiens, read-out: EC50 (μM) in various cancer cell lines: MCF7
Text: as §1, §2, §3, §4, §5

CEM/VM1 = assay: FMCA, CEM/VM1 teniposide-resistant leukaemia; settings: Homo sapiens, read-out: EC50 (μM) in various cancer cell lines: CEM/VM1
Text: as §1, §2, §3, §4, §5

H69 = assay: FMCA, H69 lung cancer; settings: Homo sapiens, NCI-H69, read-out: EC50 (μM) in various cancer cell lines: H69
Text: as §1, §2, §3, §4, §5

H69AR = assay: FMCA, H69AR doxorubicin-resistant lung cancer; settings: Homo sapiens, read-out: EC50 (μM) in various cancer cell lines: H69 AR
Text: as §1, §2, §3, §4, §5

RPMI 8226 = assay: FMCA, RPMI 8226 myeloma; settings: Homo sapiens, read-out: EC50 (μM) in various cancer cell lines: RPMI 8226
Text: as §1, §2, §3, §4, §5

8226/Dox40 = assay: FMCA, 8226/Dox40 doxorubicin-resistant myeloma; settings: read-out: EC50 (μM) in various cancer cell lines: 8226/Dox40
Text: as §1, §2, §3, §4, §5

ACHN = assay: FMCA, ACHN renal cancer; settings: Homo sapiens, read-out: EC50 (μM) in various cancer cell lines: ACHN
Text: as §1, §2, §3, §4, §5

U-937 = assay: FMCA, U-937 lymphoma; settings: Homo sapiens, read-out: EC50 (μM) in various cancer cell lines: U-937
Text: as §1, §2, §3, §4, §5

U-937-vcr = assay: FMCA, U-937-vcr vincristin-resistant lymphoma; settings: read-out: EC50 (μM) in various cancer cell lines: U-937-ver
Text: as §1, §2, §3, §4, §5

A2780 = assay: FMCA, A2780 ovarian cancer; settings: Homo sapiens, read-out: EC50 (μM) in various cancer cell lines: A2780
Text: as §1, §2, §3, §4, §5

A2780/Adr = assay: FMCA, A2780/Adr doxorubicin-resistant ovarian cancer; settings: read-out: EC50 (μM) in various cancer cell lines: A2780/Adr
Text: as §1, §2, §3, §4
(§6) The compounds of the invention were also tested on further cancer cell lines related to colon cancer (HCT116; see e.g Brattain M G, et al. Cancer Res. 1981, 41, 1751-1756), breast cancer (MCF7; see e.g. Soule H D, et al. J. Natl. Cancer Inst. 1973, 51, 1409-1416), teniposide-resistant leukaemia (CEM/VM1; see e.g. Danks M K et al. Cancer Res. 1987, 47, 1297-1301), lung cancer (H69; see e.g. Gazdar A F, et al. Cancer Res. 1980, 40, 3502-3507), doxorubicin-resistant lung cancer (H69AR; see e.g. Mirski S E, et al. Cancer Res. 1987, 47, 2594-2598), myeloma (RPMI 8226; see e.g. Matsuoka Y, et al. Proc. Soc. Exp. Biol. Med. 1967, 125, 1246-1250), doxorubicin-resistant myeloma (8226/Dox40; see e.g. Dalton W S et al. Blood 1989, 15,747-752), lymphoma (U-937, see e.g. Sundstrom C, et al. Int. […]

A2780/Cis = assay: FMCA, A2780/Cis cisplatin-resistant ovarian cancer; settings: A2780cis, read-out: EC50 (μM) in various cancer cell lines: A2780/Cis
Text: as §1, §2, §3, §4, §6

Cn1ccc2c(Nc3nccc(NCc4ccc5[nH]ccc5c4)n3)cccc21 [Example 75, N^4-(1H-indol-5-ylmethyl)-N^2-(1-methyl-1H-indol-4-yl)pyrimidine-2,4-diamine]
EC50 [1]: 610 nM

Cc1cc2cc(Nc3ccnc(NCc4ccc5[nH]ccc5c4)n3)ccc2[nH]1 [Example 24, N^2-(1H-indol-5-ylmethyl)-N^4-(2-methyl-1H-indol-5-yl)pyrimidine-2,4-diamine]
EC50 [1]: 380 nM | EC50 (HCT116): 0.51 µM | EC50 (MCF7): 4.43 µM | EC50 (CEM/VM1): 0.21 µM | EC50 (H69): 9.35 µM | EC50 (H69AR): 0.46 µM | EC50 (RPMI 8226): 0.23 µM | EC50 (8226/Dox40): 0.41 µM | EC50 (ACHN): 1.26 µM | EC50 (U-937): 0.19 µM | EC50 (U-937-vcr): 0.19 µM | EC50 (A2780): 0.28 µM | EC50 (A2780/Adr): 0.6 µM | EC50 (A2780/Cis): 0.22 µM

Nc1cnc(Nc2ccc3cc[nH]c3c2)nc1NCc1ccc2[nH]ccc2c1 [Example 40, N^4-(1H-indol-5-ylmethyl)-N^2-(1H-indol-6-yl)pyrimidine-2,4,5-triamine]
EC50 [1]: 4170 nM

Cc1cc2cc(CNc3nccc(Nc4ccc5[nH]c(C)cc5c4)n3)ccc2[nH]1 [Example 63, N^4-(2-methyl-1H-indol-5-yl)-N^2-(2-methyl-1H-indol-5-ylmethyl)pyrimidine-2,4-diamine]
EC50 [1]: 590 nM

Cc1cc2cc(Nc3nccc(NCc4ccc5[nH]ccc5c4)n3)ccc2[nH]1 [Example 3, N^4-(1H-indol-5-ylmethyl)-N^2-(2-methyl-1H-indol-5-yl)pyrimidine-2,4-diamine]
EC50 [1]: 4250 nM

Cc1nc2cc(Nc3ccnc(NCc4ccc5[nH]ccc5c4)n3)ccc2[nH]1 [Example 96, N^2-(1H-indol-5-ylmethyl)-N^4-(2-methyl-1H-benzo[d]imidazol-5-yl)pyrimidine-2,4-diamine]
EC50 [1]: 680 nM

c1cc(Nc2ccc3[nH]cnc3c2)nc(NCc2ccc3[nH]ccc3c2)n1 [Example 95, N^2-(1H-indol-5-ylmethyl)-N^4-(1H-benzo[d]imidazol-5-yl)pyrimidine-2,4-diamine]
EC50 [1]: 900 nM
